Measured values reported in patent publication US9340809B2, “Microbial conversion of sugar acids and means therein” (VALTION […] TUTKIMUSKESUS, priority 2005, dated 2016).

Tests used:
[1] = molecular target: T1, L-galactonic acid dehydratase (Trichoderma reesei, UniProt Q0QWS4); test: specificity test of L-galactonic acid dehydratase in yeast extract of strain H3350, formation of reducing sugars; format: biochemical, Hypocrea jecorina (Trichoderma reesei); conditions: yeast extract of S. cerevisiae strain H3350 expressing lgd1; formation of reducing sugars followed
T1 construct: made in house; host or cells: Saccharomyces cerevisiae strain H3350 (DSM 17214), crude yeast extract
T1 sequence (Q0QWS4 1-450): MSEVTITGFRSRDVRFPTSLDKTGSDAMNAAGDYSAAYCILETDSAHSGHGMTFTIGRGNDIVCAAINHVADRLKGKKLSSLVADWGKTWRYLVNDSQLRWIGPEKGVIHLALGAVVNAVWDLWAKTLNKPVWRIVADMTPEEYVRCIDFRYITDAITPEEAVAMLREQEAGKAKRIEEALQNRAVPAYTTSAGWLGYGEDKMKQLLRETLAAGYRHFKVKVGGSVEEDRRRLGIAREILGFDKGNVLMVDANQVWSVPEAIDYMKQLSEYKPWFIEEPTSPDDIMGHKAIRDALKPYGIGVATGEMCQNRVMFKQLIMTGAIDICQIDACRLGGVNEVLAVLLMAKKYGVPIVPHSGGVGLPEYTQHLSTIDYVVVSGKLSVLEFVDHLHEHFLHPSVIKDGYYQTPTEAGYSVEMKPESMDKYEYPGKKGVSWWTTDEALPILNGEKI
Source text: The resulting vector was then transformed to a strain of Saccharomyces cerevisiae. The resulting S. cerevisiae strain was then disintegrated by vortexing with glass beads and the yeast extract analyzed for L-galactonic acid dehydratase activity. To assay the L-galactonic acid dehydratase activity L-galactonic acid was mixed with the yeast extract and formation of reducing sugars followed using standard protocols. (Bernfeld, P. (1955) “Amylases, α and β,” In: Methods In Enzymology, vol. 1, Colovick S. P., Kaplan, N. O. (eds.) Academic Press NY, pp 149-158).
To test the specificity of the enzyme the yeast extract as described before was mixed with the sugar acids D-gluconic acid, D-arabonic acid, D-xylonic acid, L-gulonic acid and L-galactonic acid. We followed the formation of reducing sugars as described in the example 1.

[2] = molecular target: T1, L-galactonic acid dehydratase; test: conversion of L-galactonic acid by yeast extract of strain H3350, product quantified as 2-keto-3-deoxy sugar acid in a chemical assay; format: biochemical, Hypocrea jecorina (Trichoderma reesei); conditions: after 21 hours; protein concentration of yeast extract 0.15 g/l; initial L-galactonic acid concentration 10 mM
Experimental: L-galactonic acid was mixed with the yeast extract of strain H3350 as described in example 1. The reaction product was identified as a 2-keto-3-deoxy sugar acid in a chemical assay and quantified as described by Buchanan et al. (1999) Biochem. J., 343:563-570. The protein concentration of the yeast extract in the reaction medium was 0.15 g/l and the initial L-galactonic acid concentration 10 mM. After 21 hours 1.04 mM of L-threo-3-deoxy-hexulosonic acid was formed.

SMILES | enzyme activity with the sugar acid as substrate [1] | L-threo-3-deoxy-hexulosonic acid formed [2] [mM]
O=C(O)[C@@H](O)[C@H](O)[C@H](O)CO [D-arabonic acid] | Activity was observed | –
O=C(O)[C@H](O)[C@@H](O)[C@H](O)[C@H](O)CO [D-gluconic acid] | does not exhibit activity | –
O=C(O)[C@H](O)[C@@H](O)[C@H](O)CO [D-xylonic acid] | does not exhibit activity | –
O=C(O)[C@@H](O)[C@H](O)[C@H](O)[C@@H](O)CO [L-galactonic acid] | Activity was observed | 1.04
